Experiments:
[1] = system: K. pneumoniae ATCC BAA-1705 (KPC2); assay: Disk zone of inhibition, antibiotic + Compound-1 on same disk (Methodology 2); type: cell-based, Klebsiella pneumoniae
Source text: (§1) In this experiment, Compound-1 is used as a diagnostic reagent for the detection of β-lactamases belonging to the families KPC & ESBL (e.g., SHV18) producing Enterobacteriaceae. A simple set of absorbent paper disks impregnated with antibiotic on agar medium is used for the detection.
(§2) • 0.5 McFarland of the test organism was inoculated at 1:10 dilution on Muller • Hinton Agar plates • Test organisms: Klebsiella pneumoniae (K.p) ATCC BAA-1705, Klebsiella pneumoniae ATCC 700603, Escherichia coli (E.c) Ecoli233 • Carbapenem (e.g., Imipenem [IPM] 10 μg) and cephalosporin (e.g., Ceftazidime [CAZ] 30 μg) paper disks (7 mm) were placed on the inoculated agar plates • Compound-1 (60 μg) disk was placed at a distance of 7 & 10 mm from the carbapenem and cephalosporin disks. • The presence of expressed carbapenemases or ESBLs was measured as the expansion of Imipenem or Ceftazidime's inhibition zones due to synergy in the presence of Compound-1.
(§3) The methodology remains the same as Methodology 1 except the following change • Compound-1 (60 μg) was added on the same disk in combination with a carbapenem (e.g., Imipenem 10 μg) or cephalosporin (e.g., Ceftazidime 30 μg) and placed on the inoculated agar plate. • The presence of the expressed carbapenemases or ESBLs was measured as an increase in Imipenem or Ceftazidime's zone diameter in combination with Compound-1 compared to antibiotic alone. Results

E. coli Ecoli233 (KPC3) = assay: as above; type: cell-based, Escherichia coli
Source text: as §1, §2, §3

[2] = system: K. pneumoniae ATCC 700603 (SHV18); assay: as above; type: cell-based, Klebsiella pneumoniae
Source text: as §1
as §2, with “Compound-1. Results:” for “Compound-1.”
as §3

[3] = system: E. coli ATCC 25922 (β-lac-ve); assay: as above; type: cell-based, Escherichia coli
E. coli BAA-201 (TEM-3) = assay: MIC of Piperacillin with inhibitor, ESBL isolates; type: cell-based
E. coli BAA-197 (TEM-12) = assay: MIC of Piperacillin with inhibitor, ESBL isolates; type: cell-based, Escherichia coli
E. coli BAA-198 (TEM-26) = assay: MIC of Piperacillin with inhibitor, ESBL isolates; type: cell-based, Escherichia coli
E. coli BAA-199 (SHV-3) = assay: MIC of Piperacillin with inhibitor, ESBL isolates; type: cell-based, Escherichia coli
E. coli BAA-200 (SHV-4) = assay: MIC of Piperacillin with inhibitor, ESBL isolates; type: cell-based, Escherichia coli
[4] = system: K. pneumoniae 700603 (SHV-18); assay: MIC of Piperacillin with inhibitor, ESBL isolates; type: cell-based, Klebsiella pneumoniae
[5] = Ceftazidime 30 μg + Compound-1 60 μg on same disk
[6] = Imipenem 10 μg + Compound-1 60 μg on same disk

Structure (SMILES): C[n+]1ccn(C[C@@]2(C)[C@H](C(=O)[O-])N3C(=O)C[C@H]3S2(=O)=O)n1 [Compound-1, 1-{[(2S,3S,5R)-2-Carboxy-3-methyl-4,4,7-trioxo-4-thia-1-azabicyclo[3.2.0]hept-3-yl]methyl}-3-methyl-1H-1,2,3-triazol-3-ium]
- ZOI of CAZ + Compound-1 [1, 5]: 18.5 mm
- ZOI of IPM + Compound-1 [1, 6]: 20 mm
- ZOI of CAZ + Compound-1 (E. coli Ecoli233 (KPC3); [5]): 22.5 mm
- ZOI of IPM + Compound-1 (E. coli Ecoli233 (KPC3); [6]): 20 mm
- ZOI of CAZ + Compound-1 [2, 5]: 23 mm
- ZOI of IPM + Compound-1 [2, 6]: 25 mm
- ZOI of CAZ + Compound-1 ([3]; Ceftazidime 30 μg + Compound-1 60 μg on same disk, ATCC 25922): 25 mm
- ZOI of IPM + Compound-1 ([3]; Imipenem 10 μg + Compound-1 60 μg on same disk, ATCC 25922): 26.5 mm
- Zone of inhibition of compound-1 alone ([3]; β-lactamase negative strain, FIG. 1 (D)): does not show any zone of inhibition

Structure (SMILES): C[C@]1(Cn2ccnn2)[C@H](C(=O)O)N2C(=O)C[C@H]2S1(=O)=O [Tazobactam]
- MIC of Piperacillin with inhibitor (E. coli BAA-201 (TEM-3); inhibitor at 1 μg/mL): 4 µg/mL
- MIC of Piperacillin with inhibitor (E. coli BAA-201 (TEM-3); inhibitor at 2 μg/mL): 4 µg/mL
- MIC of Piperacillin with inhibitor (E. coli BAA-201 (TEM-3); inhibitor at 4 μg/mL): 2 µg/mL
- MIC of Piperacillin with inhibitor (E. coli BAA-197 (TEM-12); inhibitor at 1 μg/mL): 64 µg/mL
- MIC of Piperacillin with inhibitor (E. coli BAA-197 (TEM-12); inhibitor at 2 μg/mL): 8 µg/mL
- MIC of Piperacillin with inhibitor (E. coli BAA-197 (TEM-12); inhibitor at 4 μg/mL): 4 µg/mL
- MIC of Piperacillin with inhibitor (E. coli BAA-198 (TEM-26); inhibitor at 1 μg/mL): 4 µg/mL
- MIC of Piperacillin with inhibitor (E. coli BAA-198 (TEM-26); inhibitor at 2 μg/mL): 4 µg/mL
- MIC of Piperacillin with inhibitor (E. coli BAA-198 (TEM-26); inhibitor at 4 μg/mL): 4 µg/mL
- MIC of Piperacillin with inhibitor (E. coli BAA-199 (SHV-3); inhibitor at 1 μg/mL): >128 µg/mL
- MIC of Piperacillin with inhibitor (E. coli BAA-199 (SHV-3); inhibitor at 2 μg/mL): >128 µg/mL
- MIC of Piperacillin with inhibitor (E. coli BAA-199 (SHV-3); inhibitor at 4 μg/mL): >128 µg/mL
- MIC of Piperacillin with inhibitor (E. coli BAA-200 (SHV-4); inhibitor at 1 μg/mL): >128 µg/mL
- MIC of Piperacillin with inhibitor (E. coli BAA-200 (SHV-4); inhibitor at 2 μg/mL): >128 µg/mL
- MIC of Piperacillin with inhibitor (E. coli BAA-200 (SHV-4); inhibitor at 4 μg/mL): 4 µg/mL
- MIC of Piperacillin with inhibitor ([4]; inhibitor at 1 μg/mL): 16 µg/mL
- MIC of Piperacillin with inhibitor ([4]; inhibitor at 2 μg/mL): 16 µg/mL
- MIC of Piperacillin with inhibitor ([4]; inhibitor at 4 μg/mL): 16 µg/mL

Reference: patent US10201532B2, “Compounds and their use” (ALLECRA THERAPEUTICS GMBH, priority 2010, dated 2019)
